This passage reports GI50 and TGI results from PubChem BioAssay (NCI).

Some test systems named below: ACHN renal; BT-549 breast; HL-60(TB) leukemia; HOP-62 NSCLC; NCI-H23 lung; NCI-H522 lung; RPMI-8226 leukemia; SF-539 CNS; SK-MEL-5 melanoma; UACC-257 melanoma.
Holding throughout (experiment): inhibition of tumour cell growth, NCI panel, 48 h

Molecules are shown by their SMILES. Where “and” joins values, the source holds several entries; their conditions need not be identical. Identical values can stand only once.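 Five compound concentrations were applied to cells in 96-well plates for 48 hours; endpoints were derived by simple linear interpolation of the resulting dose-response curve. Abbreviation: GI50, concentration required for 50% inhibition of growth. At the TGI there is no net growth.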

Consider `CC1(C)CC[C@]2(C(=O)O)CC[C@]3(C)C(=CC[C@@H]4[C@@]5(C)C/C(=C/c6cccnc6)[C@H](O)C(C)(C)[C@@H]5CC[C@]43C)[C@@H]2C1`, for which the GI50 with ACHN renal was 6.11 µM; in the assay with BT-549 breast it was 12.4 µM; in the assay with HL-60(TB) leukemia, 2.12 µM; with HOP-62 NSCLC, 13 µM; in the assay with NCI-H23 lung, 9.64 µM; in the assay with NCI-H522 lung, 8.97 µM. The GI50 in the assay on RPMI-8226 leukemia is 3.02 µM; in the assay with SF-539 CNS it was 5.54 µM; in the assay with SK-MEL-5 melanoma it was 6.71 µM; in the assay with UACC-257 melanoma, 24.9 µM. Moreover, the TGI with ACHN renal was above 100 µM; in the assay on BT-549 breast it was above 100 µM; in the assay on HL-60(TB) leukemia, 5.94 µM; with HOP-62 NSCLC, above 100 µM; in the assay on NCI-H23 lung, above 100 µM; in the assay with NCI-H522 lung, above 100 µM. Also, the TGI with RPMI-8226 leukemia worked out at 18.8 µM; in the assay on SF-539 CNS, 24 µM; in the assay on SK-MEL-5 melanoma, 23.2 µM; in the assay on UACC-257 melanoma, 92.8 µM.
With `FC(F)(F)c1ccc(-c2cnc(-c3nn[nH]n3)nc2NC2CCCCCC2)cc1`, the GI50 with ACHN renal, in the assay on BT-549 breast, in the assay on HL-60(TB) leukemia, with HOP-62 NSCLC, in the assay with NCI-H23 lung and in the assay on NCI-H522 lung was above 10 µM in each case. Besides, the GI50 in the assay with RPMI-8226 leukemia, in the assay on SF-539 CNS, in the assay on SK-MEL-5 melanoma and with UACC-257 melanoma was above 10 µM each time. For the same molecule, the TGI with ACHN renal, with BT-549 breast, in the assay with HL-60(TB) leukemia, in the assay with HOP-62 NSCLC, in the assay with NCI-H23 lung and with NCI-H522 lung was above 10 µM throughout. In addition, the TGI in the assay on RPMI-8226 leukemia, with SF-539 CNS, in the assay on SK-MEL-5 melanoma and in the assay on UACC-257 melanoma was above 10 µM each time.
Take `c1c[nH]c(CN2CCN(Cc3ncc[nH]3)CC2)n1`: the TGI with ACHN renal, in the assay on BT-549 breast, in the assay on HL-60(TB) leukemia, with HOP-62 NSCLC, in the assay with NCI-H23 lung and with NCI-H522 lung was above 100 µM in each case. For the same molecule, the TGI in the assay on RPMI-8226 leukemia, in the assay with SF-539 CNS, in the assay with SK-MEL-5 melanoma and in the assay with UACC-257 melanoma was above 100 µM in each case.
Consider `C=C(C)[C@@H]1CC[C@]2(C(=O)OC)CC[C@]3(C)[C@H](CC[C@@H]4[C@@]5(C)CC/C(=N\OCCC(=NCCC#N)NOCCC#N)C(C)(C)[C@@H]5CC[C@]43C)[C@@H]12`, for which the GI50 in the assay with ACHN renal was 10.5 µM; with BT-549 breast, 11.3 µM; in the assay with HL-60(TB) leukemia it was 5.18 µM; with HOP-62 NSCLC, 12.5 µM; in the assay with NCI-H23 lung it was 7.59 µM; in the assay with NCI-H522 lung it was 8.34 µM. The GI50 with RPMI-8226 leukemia was 4.91 µM; with SF-539 CNS, 11 µM; in the assay on SK-MEL-5 melanoma it was 3.02 µM; with UACC-257 melanoma, 5.35 µM. In addition, the TGI was above 50 µM in the assay on ACHN renal; above 50 µM in the assay with BT-549 breast; 24.9 µM in the assay with HL-60(TB) leukemia; above 50 µM with HOP-62 NSCLC; above 50 µM in the assay on NCI-H23 lung; above 50 µM in the assay on NCI-H522 lung. The TGI with RPMI-8226 leukemia is 42.7 µM; in the assay with SF-539 CNS it was above 50 µM; in the assay on SK-MEL-5 melanoma it was 10 µM; with UACC-257 melanoma, above 50 µM.
In the case of `CC(=O)O[C@@H]1[C@H]2O[C@H]2[C@H]2O[C@@]2(COC(=O)c2ccccc2)[C@H]1OC(C)=O`, the TGI in the assay on ACHN renal, with BT-549 breast, in the assay on HL-60(TB) leukemia, in the assay with NCI-H23 lung, in the assay with NCI-H522 lung and in the assay with RPMI-8226 leukemia was above 100 µM in each case. The TGI with SF-539 CNS, in the assay on SK-MEL-5 melanoma and in the assay on UACC-257 melanoma was above 100 µM throughout.
In the case of `COc1cc(C(=O)N[C@@H]2CCCN(C)C2)ccc1Nc1ncc2c(n1)N(C1CCCC1)CC(C)(C)C(=O)N2C`, the GI50 with ACHN renal is 1.55 µM; with BT-549 breast it was 0.73 µM; in the assay on HL-60(TB) leukemia, 0.0266 µM; in the assay with HOP-62 NSCLC, 0.0641 µM; with NCI-H23 lung, 0.041 µM; with NCI-H522 lung, 0.0209 µM. The GI50 is 1.25 µM with RPMI-8226 leukemia, 0.203 µM in the assay on SF-539 CNS, 0.123 µM in the assay with SK-MEL-5 melanoma and 0.285 µM in the assay on UACC-257 melanoma. The TGI in the assay with ACHN renal was 19.4 µM; in the assay with BT-549 breast, 18 µM; in the assay with HL-60(TB) leukemia, 0.0788 µM; in the assay with HOP-62 NSCLC, 10.2 µM; in the assay with NCI-H23 lung, 3.01 µM; in the assay on NCI-H522 lung, 0.0575 µM. In addition, the TGI stood at 19.4 µM in the assay with RPMI-8226 leukemia, 1.69 µM in the assay with SF-539 CNS, 1.56 µM in the assay on SK-MEL-5 melanoma and 2.63 µM with UACC-257 melanoma.
With `COc1ncc(-c2ccc3nc(N)n(-c4ccccc4C(F)(F)F)c(=O)c3c2)cc1S(=O)(=O)Nc1ccc(F)cc1F`, the GI50 in the assay with ACHN renal is 5.77 µM; with BT-549 breast, 1.57 µM; with HL-60(TB) leukemia it was 1.42 µM; in the assay on HOP-62 NSCLC, 0.526 µM; with NCI-H23 lung, 0.693 µM; in the assay with NCI-H522 lung, 3.04 µM. Further, the GI50 was 0.3 µM with RPMI-8226 leukemia, 1.22 µM with SF-539 CNS, 0.273 µM with SK-MEL-5 melanoma and 7.81 µM in the assay with UACC-257 melanoma. Further, the TGI with ACHN renal is above 100 µM; in the assay on BT-549 breast, 6.7 µM; in the assay with HL-60(TB) leukemia, 5.24 µM; in the assay with HOP-62 NSCLC, above 100 µM; in the assay on NCI-H23 lung, 38.1 µM; with NCI-H522 lung it was 24.5 µM. Also, the TGI is 2.54 µM with RPMI-8226 leukemia, 20.4 µM in the assay on SF-539 CNS, 0.944 µM in the assay on SK-MEL-5 melanoma and 24.5 µM with UACC-257 melanoma.
Consider `O=C(/C=C/c1ccccc1)c1ccccn1`, for which the TGI in the assay on ACHN renal is 28.9 µM and 31 µM; with BT-549 breast it was 37.4 µM and 52.4 µM; in the assay on HL-60(TB) leukemia, 53.6 µM and 84.8 µM; in the assay on HOP-62 NSCLC, 29.3 µM and > 100 µM; in the assay with NCI-H23 lung, 33.3 µM and 35.5 µM; in the assay with NCI-H522 lung, 48.2 µM and 33.2 µM. For the same molecule, the TGI in the assay on RPMI-8226 leukemia was 31.6 µM and 81.1 µM; in the assay on SF-539 CNS, 42.4 µM; in the assay on SK-MEL-5 melanoma, 28.5 µM and 88.6 µM; in the assay with UACC-257 melanoma, 26.9 µM and 32.3 µM. For the same molecule, the GI50 is 2.55 µM and 16.4 µM with HL-60(TB) leukemia; 13.9 µM and 34.7 µM in the assay on HOP-62 NSCLC; 5.71 µM and 15.9 µM in the assay with RPMI-8226 leukemia.
Regarding `COC(=O)[C@@H](C)C[C@H](Cc1ccccc1)NC(=O)c1nc([C@@H](C[C@H](C(C)C)N(C)C(=O)[C@@H](NC(=O)[C@H]2CC(=O)CCN2C)C(C)C)OC(C)=O)sc1C(C)C`, the GI50 was 0.794 µM in the assay on ACHN renal; 0.0971 µM in the assay with BT-549 breast; 0.0529 µM in the assay with HL-60(TB) leukemia; 0.694 µM in the assay with HOP-62 NSCLC; 0.456 µM in the assay on NCI-H23 lung; 0.0549 µM with NCI-H522 lung. The GI50 in the assay on RPMI-8226 leukemia is 0.056 µM; in the assay on SF-539 CNS it was 0.345 µM; with SK-MEL-5 melanoma, 0.0869 µM; in the assay with UACC-257 melanoma it was above 10.8 µM. Further, the TGI is above 16.7 µM in the assay with ACHN renal; 2.7 µM in the assay on BT-549 breast; 0.227 µM with HL-60(TB) leukemia; above 16.7 µM in the assay on HOP-62 NSCLC; above 16.7 µM with NCI-H23 lung; 4.38 µM with RPMI-8226 leukemia. Besides, the TGI was 0.967 µM in the assay with SF-539 CNS, 1.76 µM in the assay on SK-MEL-5 melanoma and above 16.7 µM in the assay on UACC-257 melanoma.
Regarding `Fc1cnccc1-c1nc2ccc3[nH]ncc3c2c2c1CCCC2`, the GI50 in the assay with ACHN renal is 0.466 µM; in the assay on BT-549 breast it was 1.28 µM; in the assay on HL-60(TB) leukemia, 2.2 µM; in the assay on HOP-62 NSCLC, 0.909 µM; in the assay with NCI-H23 lung, 2.22 µM; in the assay on NCI-H522 lung, 1.31 µM. The GI50 is 1.2 µM in the assay with RPMI-8226 leukemia, 1.29 µM in the assay with SF-539 CNS, 2.35 µM in the assay with SK-MEL-5 melanoma and 5.48 µM in the assay with UACC-257 melanoma. Further, the TGI in the assay on ACHN renal is above 100 µM; in the assay on BT-549 breast, 7.74 µM; in the assay on HL-60(TB) leukemia, 7.3 µM; with HOP-62 NSCLC it was 94.2 µM; in the assay on NCI-H23 lung, 59.9 µM; in the assay on NCI-H522 lung, 8.76 µM. Besides, the TGI in the assay with RPMI-8226 leukemia is 6.33 µM; with SF-539 CNS, 4.54 µM; with SK-MEL-5 melanoma it was above 100 µM; with UACC-257 melanoma, above 100 µM.
On to `CNC(=S)N/N=C/CSC/C=N/NC(=S)NC`, for which the GI50 with ACHN renal was above 100 µM; in the assay with BT-549 breast, above 100 µM; with HL-60(TB) leukemia it was above 62.3 µM; with HOP-62 NSCLC, above 100 µM; in the assay on NCI-H23 lung, above 100 µM; in the assay on NCI-H522 lung it was above 100 µM. For the same molecule, the GI50 in the assay on RPMI-8226 leukemia, with SF-539 CNS, with SK-MEL-5 melanoma and in the assay on UACC-257 melanoma was above 100 µM in each case. Moreover, the TGI with ACHN renal, in the assay on BT-549 breast, in the assay on HL-60(TB) leukemia, in the assay on HOP-62 NSCLC, in the assay with NCI-H23 lung and with NCI-H522 lung was above 100 µM in each case. Besides, the TGI in the assay with RPMI-8226 leukemia, with SF-539 CNS, in the assay on SK-MEL-5 melanoma and in the assay with UACC-257 melanoma was above 100 µM throughout.
For `CN1CC[C@H](N(C)C(=O)N2CC(c3cc(F)ccc3F)=C[C@@]2(CO)c2ccccc2)[C@H](F)C1`, the GI50 with ACHN renal was 0.0373 µM and 0.0195 µM; in the assay on BT-549 breast it was 0.0421 µM; in the assay on HL-60(TB) leukemia, 0.0337 µM; in the assay on NCI-H23 lung, 0.0371 µM; with NCI-H522 lung, 0.00871 µM; in the assay with RPMI-8226 leukemia it was 0.0294 µM. The GI50 in the assay with SF-539 CNS was 0.00498 µM; with SK-MEL-5 melanoma it was 0.00471 µM. The TGI in the assay on ACHN renal is above 100 µM; in the assay with BT-549 breast it was 37.7 µM; in the assay with HL-60(TB) leukemia, above 100 µM; with NCI-H23 lung, above 100 µM; in the assay on RPMI-8226 leukemia it was 40.8 µM; in the assay on SK-MEL-5 melanoma, 14.1 µM. The TGI in the assay on UACC-257 melanoma was found to be 41.4 µM.
